Bliss interaction score data for 14 compounds are collected here from the supplement of paper PMC10627819.

Holding throughout (assay): Bliss interaction score (quartile over a dose matrix) (fitness difference); higher = more antagonism (negative = synergy)
Assay [1] relates to S. aureus Newman. The method in brief:
(§1)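 OD595 was read at entry into stationary phase and expressed relative to the robust mean of the no-drug wells on the same plate, capped at 1. The resulting ratio is the fitness value. The Bliss score, observed fitness minus product-based expected fitness with single-drug fitness inferred from combinations, is summarised by quartiles over technical, biological and donor/recipient replicates.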

Assay [2] deals with S. pneumoniae D39V. The gist of the method: as §1
Assay [3] deals with B. subtilis 168. The gist of the method:
as §1

The test system of assay [4] is S. aureus DSM 20231. The gist of the method: as §1
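Note: first quartile when negative (synergy) and third quartile when positive (antagonism).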

Take `CNC(C)C1CCC(N)C(OC2C(N)CC(N)C(OC3OCC(C)(O)C(NC)C3O)C2O)O1` (stereo unspecified) [Gentamicin] + CN[C@H](CC(C)C)C(=O)N[C@H]1C(=O)N[C@@H](CC(N)=O)C(=O)N[C@H]2C(=O)N[C@H]3C(=O)N[C@H](C(=O)N[C@H](C(=O)O)c4cc(O)cc(O)c4-c4cc3ccc4O)[C@H](O[C@H]3C[C@](C)(N)[C@@H](O)[C@H](C)O3)c3ccc(c(Cl)c3)Oc3cc2cc(c3O[C@@H]2O[C@H](CO)[C@@H](O)[C@H](O)[C@H]2O[C@H]2C[C@](C)(NCc3ccc(-c4ccc(Cl)cc4)cc3)[C@@H](O)[C@H](C)O2)Oc2ccc(cc2Cl)[C@H]1O [Oritavancin]: the Bliss interaction score was 0.0919 in assay [1] (main component drawn), 0.0748 in assay [2] (main component drawn), 0.048 in assay [3] (main component drawn) and -0.0507 in assay [4] (main component drawn).

As to `CNC(C)C1CCC(N)C(OC2C(N)CC(N)C(OC3OCC(C)(O)C(NC)C3O)C2O)O1` (stereo unspecified) [Gentamicin] + CO[C@@]12[C@H](COC(N)=O)C3=C(C(=O)C(C)=C(N)C3=O)N1C[C@@H]1N[C@@H]12 [MitomycinC], the Bliss interaction score was 0.0445 in assay [1] (main component drawn), 0.0575 in assay [2] (main component drawn), -0.0792 in assay [3] (main component drawn) and -0.0573 in assay [4] (main component drawn).

As for `CNC(C)C1CCC(N)C(OC2C(N)CC(N)C(OC3OCC(C)(O)C(NC)C3O)C2O)O1` (stereo unspecified) [Gentamicin] + Oc1cc(Cl)ccc1Oc1ccc(Cl)cc1Cl [Triclosan], the Bliss interaction score in assay [1] (main component drawn) was 0.0182; in assay [2] (main component drawn) it was 0.0731; in assay [3] (main component drawn), -0.17; in assay [4] (main component drawn) it was -0.0821.

On to `Clc1ccc(COC(Cn2ccnc2)c2ccc(Cl)cc2Cl)c(Cl)c1` (stereo unspecified) [Miconazole] + CC1(C)S[C@@H]2[C@H](NC(=O)Cc3ccccc3)C(=O)N2[C@H]1C(=O)O [PenicillinG], for which the Bliss interaction score in assay [1] was -0.0331; in assay [2], 0.106; in assay [3], 0.0707; in assay [4], 0.0525.

Turning to `Clc1ccc(COC(Cn2ccnc2)c2ccc(Cl)cc2Cl)c(Cl)c1` (stereo unspecified) [Miconazole] + CCCCCCCCCC(=O)N[C@@H]1[C@H]([C@@H]([C@H](O[C@H]1OC2=C3C=C4C=C2OC5=C(C=C(C=C5)[C@H]([C@H]6C(=O)N[C@@H](C7=C(C(=CC(=C7)O)OC8[C@H]([C@H]([C@@H]([C@H](O8)CO)O)O)O)C9=C(C=CC(=C9)[C@H](C(=O)N6)NC(=O)[C@@H]4NC(=O)[C@@H]1C2=CC(=CC(=C2)OC2=C(C=CC(=C2)[C@H](C(=O)N[C@H](CC2=CC(=C(O3)C=C2)Cl)C(=O)N1)N)O)O)O)C(=O)O)O[C@H]1[C@@H]([C@H]([C@@H]([C@H](O1)CO)O)O)NC(=O)C)Cl)CO)O)O [Teicoplanin], the Bliss interaction score in assay [1] (main component drawn) is -0.0558; in assay [2] (main component drawn) it was 0.115; in assay [3] (main component drawn), 0.117; in assay [4] (main component drawn), -0.0409.

For `Clc1ccc(COC(Cn2ccnc2)c2ccc(Cl)cc2Cl)c(Cl)c1` (stereo unspecified) [Miconazole] + CC[C@H]1OC(=O)[C@H](C)C(=O)[C@H](C)[C@@H](O[C@@H]2O[C@H](C)C[C@H](N(C)C)[C@H]2O)[C@](C)(OC)C[C@@H](C)C(=O)[C@H](C)[C@H]2N(CCCCn3cnc(-c4cccnc4)c3)C(=O)O[C@]12C [Telithromycin], the Bliss interaction score in assay [1] came to 0.0508; in assay [2], 0.104; in assay [3] it was 0.0586; in assay [4], 0.04.

In the case of `Clc1ccc(COC(Cn2ccnc2)c2ccc(Cl)cc2Cl)c(Cl)c1` (stereo unspecified) [Miconazole] + CN[C@H](CC(C)C)C(=O)N[C@H]1C(=O)N[C@@H](CC(N)=O)C(=O)N[C@H]2C(=O)N[C@H]3C(=O)N[C@H](C(=O)N[C@H](C(=O)O)c4cc(O)cc(O)c4-c4cc3ccc4O)[C@H](O[C@H]3C[C@](C)(N)[C@@H](O)[C@H](C)O3)c3ccc(c(Cl)c3)Oc3cc2cc(c3O[C@@H]2O[C@H](CO)[C@@H](O)[C@H](O)[C@H]2O[C@H]2C[C@](C)(NCc3ccc(-c4ccc(Cl)cc4)cc3)[C@@H](O)[C@H](C)O2)Oc2ccc(cc2Cl)[C@H]1O [Oritavancin], the Bliss interaction score in assay [1] is -0.0754; in assay [2], -0.0639; in assay [3], -0.0225; in assay [4], -0.0286.

Turning to `Clc1ccc(COC(Cn2ccnc2)c2ccc(Cl)cc2Cl)c(Cl)c1` (stereo unspecified) [Miconazole] + CO[C@@H]1[C@@H](OC(N)=O)[C@@H](O)[C@H](Oc2ccc3c(O)c(NC(=O)c4ccc(O)c(CC=C(C)C)c4)c(=O)oc3c2C)OC1(C)C [Novobiocin], the Bliss interaction score in assay [1] turned out to be 0.0415; in assay [2] it was 0.121; in assay [3] it was 0.0735; in assay [4], 0.0483.

With `Clc1ccc(COC(Cn2ccnc2)c2ccc(Cl)cc2Cl)c(Cl)c1` (stereo unspecified) [Miconazole] + CO[C@@]12[C@H](COC(N)=O)C3=C(C(=O)C(C)=C(N)C3=O)N1C[C@@H]1N[C@@H]12 [MitomycinC], the Bliss interaction score is -0.188 in assay [1], 0.0662 in assay [2], -0.066 in assay [3] and 0.0383 in assay [4].

With `Clc1ccc(COC(Cn2ccnc2)c2ccc(Cl)cc2Cl)c(Cl)c1` (stereo unspecified) [Miconazole] + COc1cc(Cc2cnc(N)nc2N)cc(OC)c1OC [Trimethoprim], the Bliss interaction score in assay [1] was 0.0486; in assay [2], -0.117; in assay [3], 0.0906; in assay [4], 0.0514.

In the case of `Clc1ccc(COC(Cn2ccnc2)c2ccc(Cl)cc2Cl)c(Cl)c1` (stereo unspecified) [Miconazole] + Oc1cc(Cl)ccc1Oc1ccc(Cl)cc1Cl [Triclosan], the Bliss interaction score stood at 0.0222 in assay [1], 0.0535 in assay [2], 0.0625 in assay [3] and 0.0712 in assay [4].

Take `Cc1onc(-c2ccccc2)c1C(=O)N[C@@H]1C(=O)N2[C@@H]1SC(C)(C)[C@@H]2C(=O)O` [Oxacillin] + C/C(=C\C(=O)OCCCCCCCCC(=O)O)C[C@@H]1OC[C@H](C[C@@H]2O[C@H]2[C@@H](C)[C@H](C)O)[C@@H](O)[C@H]1O [Pseudomonic acid]: the Bliss interaction score in assay [1] was 0.0232; in assay [2] it was 0.158; in assay [3] it was 0.0424; in assay [4], 0.0247.

Consider `Cc1onc(-c2ccccc2)c1C(=O)N[C@@H]1C(=O)N2[C@@H]1SC(C)(C)[C@@H]2C(=O)O` [Oxacillin] + CC1(C)S[C@@H]2[C@H](NC(=O)Cc3ccccc3)C(=O)N2[C@H]1C(=O)O [PenicillinG], for which the Bliss interaction score is -0.0558 in assay [1], -0.235 in assay [2], -0.0214 in assay [3] and 0.0796 in assay [4].

With `Cc1onc(-c2ccccc2)c1C(=O)N[C@@H]1C(=O)N2[C@@H]1SC(C)(C)[C@@H]2C(=O)O` [Oxacillin] + CC[C@H]1OC(=O)[C@H](C)C(=O)[C@H](C)[C@@H](O[C@@H]2O[C@H](C)C[C@H](N(C)C)[C@H]2O)[C@](C)(OC)C[C@@H](C)C(=O)[C@H](C)[C@H]2N(CCCCn3cnc(-c4cccnc4)c3)C(=O)O[C@]12C [Telithromycin], the Bliss interaction score in assay [1] was 0.0304; in assay [2] it was 0.112; in assay [3] it was -0.0301; in assay [4], 0.0397.
